Activity calls are given as the source filed them. The rule behind the calls is not given here.
How the values were obtained:
[1] = target: T1, Interleukin-1 receptor-associated kinase 4 (Homo sapiens, UniProt Q9NWZ3); test: Inhibition of IRAK4 (unknown origin) by Z-LYTE enzymatic kinase assay
T1 sequence (Q9NWZ3 whole entry): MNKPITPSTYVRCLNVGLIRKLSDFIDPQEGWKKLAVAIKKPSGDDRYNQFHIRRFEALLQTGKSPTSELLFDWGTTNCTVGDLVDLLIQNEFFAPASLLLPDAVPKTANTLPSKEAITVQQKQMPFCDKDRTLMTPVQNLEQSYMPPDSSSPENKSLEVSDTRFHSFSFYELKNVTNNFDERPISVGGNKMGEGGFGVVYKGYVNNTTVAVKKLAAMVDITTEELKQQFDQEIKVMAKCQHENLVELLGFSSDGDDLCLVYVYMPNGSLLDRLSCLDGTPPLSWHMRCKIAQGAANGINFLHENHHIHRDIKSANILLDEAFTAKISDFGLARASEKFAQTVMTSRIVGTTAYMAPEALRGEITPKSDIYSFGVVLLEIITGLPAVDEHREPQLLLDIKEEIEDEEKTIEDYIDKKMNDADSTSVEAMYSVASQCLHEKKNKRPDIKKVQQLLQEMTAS

[2] = target: Platelet-derived growth factor receptor alpha (Homo sapiens) (UniProt P16234); test: Inhibition of PDGFR-alpha (unknown origin) at 100 nM incubated for 1 hr in presence of ATP by ELISA analysis
[3] = target: Fibroblast growth factor receptor 4 (Homo sapiens) (UniProt P22455); test: Inhibition of FGFR4 (unknown origin) at 100 nM incubated for 1 hr in presence of ATP by ELISA analysis
[4] = target: Macrophage colony-stimulating factor 1 receptor (Homo sapiens) (UniProt P07333); test: Inhibition of CSF1R (unknown origin) at 100 nM incubated for 1 hr in presence of ATP by ELISA analysis
[5] = target: Fibroblast growth factor receptor 1 (Homo sapiens) (UniProt P11362); test: Inhibition of FGFR1 (unknown origin) at 100 nM incubated for 1 hr in presence of ATP by ELISA analysis
[6] = target: Insulin-like growth factor 1 receptor (Homo sapiens) (UniProt P08069); test: Inhibition of IGFR1 (unknown origin) at 100 nM incubated for 1 hr in presence of ATP by ELISA analysis
[7] = target: Interleukin-1 receptor-associated kinase 4 (Homo sapiens) (UniProt Q9NWZ3); test: Inhibition of IRAK4 in human OCILY10 cells assessed as downregulation of IRAK4 phosphorylation level by immunoblotting analysis; assay type: cell-based
OCI-Ly10 [8] = test: Induction of apoptosis in human OCILY10 cells assessed as early apoptotic cells at 0.1 uM incubated for 24 hrs by Annexin V-FITC/PI staining based flow cytometry (reference value: 10 %); assay type: functional
OCI-Ly10 [9] = test: Induction of apoptosis in human OCILY10 cells assessed as early apoptotic cells at 0.5 uM incubated for 24 hrs by Annexin V-FITC/PI staining based flow cytometry (reference value: 10 %); assay type: functional
OCI-Ly10 [10] = test: Induction of apoptosis in human OCILY10 cells assessed as late apoptotic cells at 0.2 uM incubated for 24 hrs by Annexin V-FITC/PI staining based flow cytometry (reference value: 3.71 %); assay type: functional
OCI-Ly10 [11] = test: Induction of apoptosis in human OCILY10 cells assessed as early apoptotic cells at 0.5 uM incubated for 48 hrs by Annexin V-FITC/PI staining based flow cytometry (reference value: 5.4 %); assay type: functional
OCI-Ly10 [12] = test: Induction of apoptosis in human OCILY10 cells assessed as late apoptotic cells at 1 uM incubated for 48 hrs by Annexin V-FITC/PI staining based flow cytometry (reference value: 3.54 %); assay type: functional
OCI-Ly10 [13] = test: Induction of apoptosis in human OCILY10 cells at 0.5 uM incubated for 24 hrs by Annexin V-FITC/PI staining based flow cytometry; assay type: functional
OCI-Ly10 [14] = test: Induction of apoptosis in human OCILY10 cells at 1 uM incubated for 24 hrs by Annexin V-FITC/PI staining based flow cytometry; assay type: functional
OCI-Ly10 [15] = test: Induction of apoptosis in human OCILY10 cells at 0.5 uM incubated for 48 hrs by Annexin V-FITC/PI staining based flow cytometry; assay type: functional
OCI-Ly10 [16] = test: Induction of apoptosis in human OCILY10 cells assessed as upregulation of caspase-3 cleavage at 0.1 to 1 uM incubated for 24 hrs by immunoblotting analysis; assay type: functional, cell-based; conditions: dose 0.1-1 µM
OCI-Ly10 [17] = test: Synergistic antiproliferative activity against human OCILY10 cells harboring MYD88 L265P assessed as inhibition of cell growth at 100 nM incubated for 72 hrs in presence of BTK inhibitor, ibrutinib at 1.6 nM by CCK-8 assay (reference value: 21.36 %); assay type: functional
OCI-Ly10 [18] = test: Synergistic antiproliferative activity against human OCILY10 cells harboring MYD88 L265P assessed as inhibition of cell growth at 800 nM incubated for 72 hrs in presence of BTK inhibitor, ibrutinib at 1.6 nM by CCK-8 assay (reference value: 54.76 %); assay type: functional
OCI-Ly10 [19] = test: Synergistic antiproliferative activity against human OCILY10 cells harboring MYD88 L265P assessed as inhibition of cell growth at 1600 nM incubated for 72 hrs in presence of BTK inhibitor, ibrutinib at 1.6 nM by CCK-8 assay (reference value: 64.69 %); assay type: functional
OCI-Ly10 [20] = test: Synergistic antiproliferative activity against human OCILY10 cells harboring MYD88 L265P assessed as inhibition of cell growth at 200 nM incubated for 72 hrs in presence of BTK inhibitor, ibrutinib at 3.1 nM by CCK-8 assay (reference value: 26.07 %); assay type: functional
OCI-Ly10 [21] = test: Synergistic antiproliferative activity against human OCILY10 cells harboring MYD88 L265P assessed as inhibition of cell growth at 1600 nM incubated for 72 hrs in presence of BTK inhibitor, ibrutinib at 3.1 nM by CCK-8 assay (reference value: 64.69 %); assay type: functional
OCI-Ly10 [22] = test: Synergistic antiproliferative activity against human OCILY10 cells harboring MYD88 L265P assessed as inhibition of cell growth at 200 nM incubated for 72 hrs in presence of BTK inhibitor, ibrutinib at 6.2 nM by CCK-8 assay (reference value: 26.07 %); assay type: functional
OCI-Ly10 [23] = test: Synergistic antiproliferative activity against human OCILY10 cells harboring MYD88 L265P assessed as inhibition of cell growth at 400 nM incubated for 72 hrs in presence of BTK inhibitor, ibrutinib at 6.2 nM by CCK-8 assay (reference value: 34.46 %); assay type: functional
OCI-Ly10 [24] = test: Synergistic antiproliferative activity against human OCILY10 cells harboring MYD88 L265P assessed as inhibition of cell growth at 800 nM incubated for 72 hrs in presence of BTK inhibitor, ibrutinib at 6.2 nM by CCK-8 assay (reference value: 54.76 %); assay type: functional
OCI-Ly10 [25] = test: Induction of apoptosis in human OCILY10 cells harboring MYD88 L265P assessed as early apoptotic cells at 0.1 uM incubated for 48 hrs in presence of BTK inhibitor, ibrutinib by Annexin V-FITC/PI staining based flow cytometry (reference value: 6.76 %); assay type: functional

Sequence of Insulin-like growth factor 1 receptor (Homo sapiens) (P08069 31-736 limits assumed): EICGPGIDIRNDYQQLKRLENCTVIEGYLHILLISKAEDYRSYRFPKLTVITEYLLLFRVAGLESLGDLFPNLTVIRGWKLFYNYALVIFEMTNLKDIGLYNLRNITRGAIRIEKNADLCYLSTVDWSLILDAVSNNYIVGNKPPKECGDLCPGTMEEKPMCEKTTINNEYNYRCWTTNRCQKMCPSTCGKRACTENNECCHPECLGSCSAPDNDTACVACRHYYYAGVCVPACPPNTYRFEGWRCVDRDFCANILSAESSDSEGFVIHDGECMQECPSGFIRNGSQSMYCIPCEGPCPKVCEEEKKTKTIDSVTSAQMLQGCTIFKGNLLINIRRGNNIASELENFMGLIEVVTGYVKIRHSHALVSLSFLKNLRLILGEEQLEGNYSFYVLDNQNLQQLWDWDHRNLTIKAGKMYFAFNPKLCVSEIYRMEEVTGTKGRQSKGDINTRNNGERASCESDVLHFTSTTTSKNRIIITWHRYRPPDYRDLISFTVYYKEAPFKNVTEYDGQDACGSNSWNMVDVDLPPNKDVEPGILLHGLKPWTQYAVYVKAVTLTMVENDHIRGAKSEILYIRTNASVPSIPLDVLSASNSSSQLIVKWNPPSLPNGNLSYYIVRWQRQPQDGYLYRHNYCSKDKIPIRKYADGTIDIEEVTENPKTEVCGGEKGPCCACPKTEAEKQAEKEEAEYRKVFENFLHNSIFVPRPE
Sequence of Insulin-like growth factor 1 receptor (Homo sapiens) (P08069 741-1367 limits assumed): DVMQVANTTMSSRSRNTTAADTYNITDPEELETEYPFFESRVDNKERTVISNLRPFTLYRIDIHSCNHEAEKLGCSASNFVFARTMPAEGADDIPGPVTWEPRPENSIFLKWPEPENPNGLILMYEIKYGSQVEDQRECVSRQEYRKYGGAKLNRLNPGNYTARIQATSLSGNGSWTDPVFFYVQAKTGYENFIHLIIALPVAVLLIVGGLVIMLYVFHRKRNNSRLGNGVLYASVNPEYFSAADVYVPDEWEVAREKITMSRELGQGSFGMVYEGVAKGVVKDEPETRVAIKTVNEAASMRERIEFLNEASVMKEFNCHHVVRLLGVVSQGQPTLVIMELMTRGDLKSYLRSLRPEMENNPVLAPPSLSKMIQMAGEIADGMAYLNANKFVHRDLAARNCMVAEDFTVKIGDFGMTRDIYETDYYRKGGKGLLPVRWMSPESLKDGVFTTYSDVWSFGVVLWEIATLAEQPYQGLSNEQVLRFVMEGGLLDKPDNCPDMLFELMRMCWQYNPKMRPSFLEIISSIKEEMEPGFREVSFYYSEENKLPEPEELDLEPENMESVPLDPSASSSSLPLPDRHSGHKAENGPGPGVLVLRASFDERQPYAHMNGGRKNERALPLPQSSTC
Sequence of Platelet-derived growth factor receptor alpha (Homo sapiens) (P16234 whole entry): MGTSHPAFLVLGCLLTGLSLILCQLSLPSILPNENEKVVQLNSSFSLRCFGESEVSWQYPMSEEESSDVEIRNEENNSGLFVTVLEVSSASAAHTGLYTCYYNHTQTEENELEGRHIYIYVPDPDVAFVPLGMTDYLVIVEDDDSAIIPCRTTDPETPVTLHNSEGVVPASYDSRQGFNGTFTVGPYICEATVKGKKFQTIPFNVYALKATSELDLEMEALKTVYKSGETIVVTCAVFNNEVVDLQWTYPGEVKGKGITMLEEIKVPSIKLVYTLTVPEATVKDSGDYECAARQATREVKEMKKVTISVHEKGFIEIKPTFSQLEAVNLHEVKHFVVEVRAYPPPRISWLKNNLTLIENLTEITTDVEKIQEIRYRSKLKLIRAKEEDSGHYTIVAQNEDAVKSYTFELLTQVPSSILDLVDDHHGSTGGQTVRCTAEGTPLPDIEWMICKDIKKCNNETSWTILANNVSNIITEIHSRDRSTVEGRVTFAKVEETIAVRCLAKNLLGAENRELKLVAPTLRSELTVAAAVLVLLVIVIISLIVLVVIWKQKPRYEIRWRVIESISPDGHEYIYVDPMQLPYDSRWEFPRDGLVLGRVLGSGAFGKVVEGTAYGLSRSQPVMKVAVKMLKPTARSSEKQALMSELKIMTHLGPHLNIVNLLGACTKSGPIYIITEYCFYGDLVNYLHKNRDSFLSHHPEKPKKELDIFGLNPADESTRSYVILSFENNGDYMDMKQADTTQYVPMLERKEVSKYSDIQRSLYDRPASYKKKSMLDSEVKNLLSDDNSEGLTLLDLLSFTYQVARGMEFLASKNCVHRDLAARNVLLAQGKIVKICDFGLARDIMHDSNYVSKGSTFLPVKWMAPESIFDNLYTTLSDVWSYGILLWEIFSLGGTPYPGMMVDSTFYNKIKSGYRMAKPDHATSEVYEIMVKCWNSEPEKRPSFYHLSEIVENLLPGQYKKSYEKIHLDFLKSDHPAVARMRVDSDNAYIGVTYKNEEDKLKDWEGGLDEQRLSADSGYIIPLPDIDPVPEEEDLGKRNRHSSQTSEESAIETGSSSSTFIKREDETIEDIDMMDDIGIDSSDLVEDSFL
Sequence of Fibroblast growth factor receptor 1 (Homo sapiens) (P11362 22-822 limits assumed): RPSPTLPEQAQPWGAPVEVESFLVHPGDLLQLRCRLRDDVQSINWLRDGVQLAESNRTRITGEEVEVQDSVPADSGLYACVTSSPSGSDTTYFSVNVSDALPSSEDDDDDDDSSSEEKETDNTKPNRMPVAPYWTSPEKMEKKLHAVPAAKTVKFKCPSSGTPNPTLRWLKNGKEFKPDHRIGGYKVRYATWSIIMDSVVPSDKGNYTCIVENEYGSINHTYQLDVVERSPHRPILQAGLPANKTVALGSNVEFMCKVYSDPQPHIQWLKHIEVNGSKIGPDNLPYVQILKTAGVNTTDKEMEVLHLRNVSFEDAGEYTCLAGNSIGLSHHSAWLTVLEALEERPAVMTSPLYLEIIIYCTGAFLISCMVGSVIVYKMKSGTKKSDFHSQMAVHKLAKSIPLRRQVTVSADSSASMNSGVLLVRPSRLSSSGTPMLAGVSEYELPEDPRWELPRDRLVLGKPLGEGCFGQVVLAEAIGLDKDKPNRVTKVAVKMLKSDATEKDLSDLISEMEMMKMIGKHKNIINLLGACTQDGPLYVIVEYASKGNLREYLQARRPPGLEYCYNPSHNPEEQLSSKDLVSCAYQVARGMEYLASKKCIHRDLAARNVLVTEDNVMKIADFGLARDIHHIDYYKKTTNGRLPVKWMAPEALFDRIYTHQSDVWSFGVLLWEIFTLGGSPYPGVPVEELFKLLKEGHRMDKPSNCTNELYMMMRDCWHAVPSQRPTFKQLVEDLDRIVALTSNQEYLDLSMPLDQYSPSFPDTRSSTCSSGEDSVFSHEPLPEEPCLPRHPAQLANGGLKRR
Sequence of Macrophage colony-stimulating factor 1 receptor (Homo sapiens) (P07333 whole entry): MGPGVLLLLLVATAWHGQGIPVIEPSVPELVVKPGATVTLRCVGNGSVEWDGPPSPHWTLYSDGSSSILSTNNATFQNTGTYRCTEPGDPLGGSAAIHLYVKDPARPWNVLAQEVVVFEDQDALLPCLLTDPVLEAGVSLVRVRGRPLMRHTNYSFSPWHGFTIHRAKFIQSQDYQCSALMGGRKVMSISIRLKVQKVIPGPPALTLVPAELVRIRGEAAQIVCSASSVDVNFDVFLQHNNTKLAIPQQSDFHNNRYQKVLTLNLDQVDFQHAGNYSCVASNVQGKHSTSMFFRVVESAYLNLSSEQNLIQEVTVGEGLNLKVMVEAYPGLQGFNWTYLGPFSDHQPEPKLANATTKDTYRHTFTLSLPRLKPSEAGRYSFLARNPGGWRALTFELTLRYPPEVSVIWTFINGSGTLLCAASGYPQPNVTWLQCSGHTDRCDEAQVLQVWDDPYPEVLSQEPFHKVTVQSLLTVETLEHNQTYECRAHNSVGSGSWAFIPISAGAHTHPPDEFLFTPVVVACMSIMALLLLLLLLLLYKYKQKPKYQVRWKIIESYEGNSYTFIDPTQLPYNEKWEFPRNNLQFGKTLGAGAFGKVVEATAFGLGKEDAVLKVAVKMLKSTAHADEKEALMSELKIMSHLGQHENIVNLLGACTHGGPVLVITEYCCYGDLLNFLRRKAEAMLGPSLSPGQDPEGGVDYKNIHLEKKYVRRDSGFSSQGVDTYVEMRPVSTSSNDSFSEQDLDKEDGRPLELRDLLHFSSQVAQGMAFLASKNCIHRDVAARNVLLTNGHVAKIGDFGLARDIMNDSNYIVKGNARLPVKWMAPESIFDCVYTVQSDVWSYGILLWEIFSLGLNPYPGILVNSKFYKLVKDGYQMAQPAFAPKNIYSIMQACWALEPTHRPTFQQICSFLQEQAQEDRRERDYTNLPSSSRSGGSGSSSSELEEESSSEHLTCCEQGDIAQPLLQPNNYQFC
Sequence of Fibroblast growth factor receptor 4 (Homo sapiens) (P22455 22-802 limits assumed): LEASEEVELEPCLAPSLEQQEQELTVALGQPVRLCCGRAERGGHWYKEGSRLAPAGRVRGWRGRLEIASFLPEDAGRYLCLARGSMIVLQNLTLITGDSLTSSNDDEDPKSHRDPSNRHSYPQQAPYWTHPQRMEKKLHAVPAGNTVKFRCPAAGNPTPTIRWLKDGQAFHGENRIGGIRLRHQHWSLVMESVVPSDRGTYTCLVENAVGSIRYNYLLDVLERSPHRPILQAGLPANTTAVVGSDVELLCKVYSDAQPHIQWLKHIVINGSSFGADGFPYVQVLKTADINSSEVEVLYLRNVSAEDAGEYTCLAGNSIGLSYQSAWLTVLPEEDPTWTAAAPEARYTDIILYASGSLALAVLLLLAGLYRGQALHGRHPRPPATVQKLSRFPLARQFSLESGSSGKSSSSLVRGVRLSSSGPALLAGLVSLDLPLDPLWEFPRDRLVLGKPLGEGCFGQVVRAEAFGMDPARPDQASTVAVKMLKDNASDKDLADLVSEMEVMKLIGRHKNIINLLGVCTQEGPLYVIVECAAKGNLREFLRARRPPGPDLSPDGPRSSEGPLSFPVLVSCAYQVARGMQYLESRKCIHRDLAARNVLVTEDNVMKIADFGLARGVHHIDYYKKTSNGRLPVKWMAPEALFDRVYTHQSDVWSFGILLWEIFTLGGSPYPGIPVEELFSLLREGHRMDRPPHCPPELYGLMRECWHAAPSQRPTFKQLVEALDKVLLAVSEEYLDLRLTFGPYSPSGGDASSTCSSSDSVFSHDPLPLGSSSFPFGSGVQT

Q: Which results are given for `Cn1cc(-c2cc3c(cc2NC(=O)c2coc(-c4ccnc(N)c4)n2)CC(C)(C)O3)cn1`?
A: IC50 [1]: 8.7 nM; inhibition [2]: inactive; inhibition [3]: inactive; inhibition [4]: inactive; inhibition [5]: inactive; inhibition [6]: inactive; inhibition [7]: Dose-Dependent Effect; Activity (OCI-Ly10 [8]): 9.32%; Activity (OCI-Ly10 [9]): 22.8%; Activity (OCI-Ly10 [10]): 11.8%; Activity (OCI-Ly10 [11]): 45.7%; Activity (OCI-Ly10 [12]): 37.7%; Activity (OCI-Ly10 [13]): 48.3%; Activity (OCI-Ly10 [14]): 66.8%; Activity (OCI-Ly10 [15]): 67.2%; Activity (OCI-Ly10 [16]): Active; inhibition at 0.1 µM (OCI-Ly10 [17]): 23.7%; inhibition at 0.8 µM (OCI-Ly10 [18]): 58.1%; inhibition at 1.6 µM (OCI-Ly10 [19]): 70.6%; inhibition at 0.2 µM (OCI-Ly10 [20]): 29.5%; inhibition at 1.6 µM (OCI-Ly10 [21]): 77.3%; inhibition at 0.2 µM (OCI-Ly10 [22]): 53.8%; inhibition at 0.4 µM (OCI-Ly10 [23]): 67.2%; inhibition at 0.8 µM (OCI-Ly10 [24]): 83.3%; Activity (OCI-Ly10 [25]): 14.2%

Reference: ChEMBL document CHEMBL5370531, “Design, synthesis and pharmacological evaluation of 2,3-dihydrobenzofuran IRAK4 inhibitors for the treatment of diffuse large B-cell lymphoma” (Eur J Med Chem, 2023)
